Data published in the supplement of paper PMC10307832.

Columns and labels:
Experiment in all cases: relative viability (nuclei count vs DMSO), 5 days (fraction); higher = more cells survive
LK-2 = tested on: LK-2
Summary of the method: (§1)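 The day after seeding in 1536-well plates, lung cancer cell lines were treated by pin tool with a single drug, or with a fixed anchor-drug dose together with five library-drug doses (not always all listed) in √10 steps. After 5 days, a combined fix-and-stain solution (final 0.05% Triton X-100, 1% formaldehyde, 1 ug/ml Hoechst) was added. Nuclei counted on 4× images gave relative viability as treated counts over vehicle counts, reported as the median of duplicate plates.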

NCI-H1623 = tested on: NCI-H1623
Summary of the method: as §1

NCI-H1651 = tested on: NCI-H1651
Summary of the method: as §1

CAL-12T = tested on: CAL-12T
Summary of the method: as §1

NCI-H1648 = tested on: NCI-H1648
Summary of the method: as §1

NCI-H1755 = tested on: NCI-H1755
Summary of the method: as §1

A-427 = tested on: A-427
Summary of the method: as §1

Compound `CN1CCN(CCOc2cc(OC3CCOCC3)c3c(Nc4c(Cl)ccc5c4OCO5)ncnc3c2)CC1` [Saracatinib] + Cc1cc(Nc2cc(N3CCN(C)CC3)nc(Sc3ccc(NC(=O)C4CC4)cc3)n2)n[nH]1 [Tozasertib] (partner 0.1 µM) has a relative viability (LK-2; first compound 0.02 µM) of 0.205, a relative viability (LK-2; first compound 0.2 µM) of 0.188 and a relative viability (LK-2; first compound 0.6325 µM) of 0.204. For the same compound, the relative viability (LK-2; first compound 2 µM) was 0.193, the relative viability (NCI-H1623; first compound 0.02 µM) was 0.447 and the relative viability (NCI-H1623; first compound 0.2 µM) was 0.443. The relative viability (NCI-H1623; first compound 0.6325 µM) was 0.456, the relative viability (NCI-H1623; first compound 2 µM) was 0.348 and the relative viability (NCI-H1651; first compound 0.02 µM) was 0.71. It also gave a relative viability (NCI-H1651; first compound 0.2 µM) of 0.555, a relative viability (NCI-H1651; first compound 0.6325 µM) of 0.691 and a relative viability (NCI-H1651; first compound 2 µM) of 0.625. For the same compound, the relative viability (CAL-12T; first compound 0.02 µM) was 0.361, the relative viability (CAL-12T; first compound 0.2 µM) was 0.387 and the relative viability (CAL-12T; first compound 0.6325 µM) was 0.283. It also gave a relative viability (CAL-12T; first compound 2 µM) of 0.194, a relative viability (NCI-H1648; first compound 0.02 µM) of 0.629 and a relative viability (NCI-H1648; first compound 0.6325 µM) of 0.813. The relative viability (NCI-H1648; first compound 2 µM) was 0.362, the relative viability (NCI-H1755; first compound 0.02 µM) was 0.526 and the relative viability (NCI-H1755; first compound 0.2 µM) was 0.528. The relative viability (NCI-H1755; first compound 0.6325 µM) was 0.644, the relative viability (NCI-H1755; first compound 2 µM) was 0.459 and the relative viability (A-427; first compound 0.02 µM) was 0.215. For the same compound, the relative viability (A-427; first compound 0.2 µM) was 0.18, the relative viability (A-427; first compound 0.6325 µM) was 0.207 and the relative viability (A-427; first compound 2 µM) was 0.206.
